Test results reported in PubChem BioAssay AID248 (DTP/NCI, 2004).
Several values for one entry are separate records, joined by “and”; a condition that tells them apart may be missing. Identical values can stand only once. Inconclusive results and toxic doses are left out.

Test system: L1210 leukemia ip in BDF1 mice, survival T/C
Assay: NCI In Vivo Anticancer Drug Screen. Data for tumor model L1210 Leukemia (intraperitoneal) in B6D2F1 (BDF1) mice
Details: endpoint: mean survival time, higher = longer survival
Outline: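 Ratio derived from survival: compound-dosed mice over vehicle-dosed mice, all bearing a transplantable tumor.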

[1] = dose: 100.0 mg/kg/injection, schedule: Q01DX009 (ip), vehicle: saline with Tween-80
[2] = dose: 100.0 mg/kg/injection, schedule: Q04DX003 (ip), vehicle: saline
[3] = dose: 200.0 mg/kg/injection, schedule: Q01DX009 (ip), vehicle: saline with Tween-80
[4] = dose: 200.0 mg/kg/injection, schedule: Q04DX003 (ip), vehicle: saline
[5] = dose: 400.0 mg/kg/injection, schedule: Q01DX009 (ip), vehicle: saline with Tween-80
[6] = dose: 400.0 mg/kg/injection, schedule: Q04DX003 (ip), vehicle: saline
[7] = dose: 100.0 mg/kg/injection, schedule: Q01DX001 (ip), vehicle: saline
[8] = dose: 200.0 mg/kg/injection, schedule: Q01DX001 (ip), vehicle: saline
[9] = dose: 100.0 mg/kg/injection, schedule: Q04DX003 (ip), vehicle: saline with Tween-80
[10] = dose: 200.0 mg/kg/injection, schedule: Q04DX003 (ip), vehicle: saline with Tween-80
[11] = dose: 400.0 mg/kg/injection, schedule: Q04DX003 (ip), vehicle: saline with Tween-80
[12] = dose: 100.0 mg/kg/injection, schedule: Q04DX002 (ip), vehicle: Klucel (hydroxypropylcellulose) (HPC)
[13] = dose: 200.0 mg/kg/injection, schedule: Q04DX002 (ip), vehicle: Klucel (hydroxypropylcellulose) (HPC)
[14] = dose: 400.0 mg/kg/injection, schedule: Q04DX002 (ip), vehicle: Klucel (hydroxypropylcellulose) (HPC)
[15] = dose: 50.0 mg/kg/injection, schedule: Q01DX001 (ip), vehicle: saline
[16] = dose: 100.0 mg/kg/injection, schedule: Q04DX003 (ip), vehicle: Klucel (hydroxypropylcellulose) (HPC)
[17] = dose: 200.0 mg/kg/injection, schedule: Q04DX003 (ip), vehicle: Klucel (hydroxypropylcellulose) (HPC)
[18] = dose: 400.0 mg/kg/injection, schedule: Q01DX001 (ip), vehicle: saline
[19] = dose: 400.0 mg/kg/injection, schedule: Q04DX003 (ip), vehicle: Klucel (hydroxypropylcellulose) (HPC)

O=C1c2ccccc2C(=O)N1CNc1ccc(Cc2ccc(NCN3C(=O)c4ccccc4C3=O)c(Cl)c2)cc1Cl
T/C [1]: 92 % of control
T/C [2]: 101 % of control
T/C [3]: 92 % of control
T/C [4]: 96 % of control
T/C [5]: 92 % of control
T/C [6]: 96 % of control

O=C(Nc1ccccc1)Nc1ncn[nH]1
T/C (dose: 75.0 mg/kg/injection, schedule: Q01DX001 (ip), vehicle: carboxymethylcellulose (CMC)): 97 % of control
T/C (dose: 150.0 mg/kg/injection, schedule: Q01DX001 (ip), vehicle: carboxymethylcellulose (CMC)): 92 % of control
T/C (dose: 300.0 mg/kg/injection, schedule: Q01DX001 (ip), vehicle: carboxymethylcellulose (CMC)): 90 % of control

CCOC(CCCN=CN(C)C)OCC
T/C [2]: 102 % of control
T/C [4]: 100 % of control
T/C [6]: 102 % of control

CCOP(=S)(NN=C1CCC(C(C)(C)C)CC1)OCC (configuration not stated)
T/C [7]: 103 % of control
T/C [8]: 97 % of control

COc1cccc(CNC(C)(C)CO)c1
T/C (dose: 75.0 mg/kg/injection, schedule: Q01DX001 (ip), vehicle: saline): 95 % of control
T/C (dose: 150.0 mg/kg/injection, schedule: Q01DX001 (ip), vehicle: saline): 102 % of control
T/C (dose: 300.0 mg/kg/injection, schedule: Q01DX001 (ip), vehicle: saline): 104 % of control

COC(=O)c1cc(C)[nH]c(=O)c1CN
T/C (dose: 75.0 mg/kg/injection, schedule: Q01DX001 (ip), vehicle: water): 104 % of control
T/C (dose: 150.0 mg/kg/injection, schedule: Q01DX001 (ip), vehicle: water): 107 % of control

CC(=O)Nc1ccc2c(c1)-c1ccccc1C2=O
T/C [9]: 98 % of control
T/C [10]: 100 % of control
T/C [11]: 98 % of control

N#Cc1cccc(CS(=O)(=O)c2ccccc2)c1
T/C [12]: 104 % of control
T/C [13]: 96 % of control
T/C [14]: 89 % of control

O=c1[nH]cnc2c1nnn2C1CC(O)C(CO)O1 (configuration not stated)
T/C [15]: 106 % of control
T/C [7]: 116 % of control
T/C [2]: 100 % of control
T/C [4]: 103 % of control
T/C [6]: 111 % of control

CCCCCCCCC1SC1CCCCCCCC(=O)OCC1CS1 (configuration not stated)
T/C (dose: 100.0 mg/kg/injection, schedule: Q01DX001 (ip), vehicle: other): 101 % of control
T/C (dose: 200.0 mg/kg/injection, schedule: Q01DX001 (ip), vehicle: other): 115 % of control
T/C (dose: 400.0 mg/kg/injection, schedule: Q01DX001 (ip), vehicle: other): 93 % of control

CC1(C)OC2C(COC(=O)Oc3ccccc3)OC(n3cnc4c(=S)nc[nH]c43)C2O1 (configuration not stated)
T/C [1]: 117 % of control
T/C [16]: 100 % of control
T/C [17]: 109 % of control

O=c1[nH]cc(/C=N\Nc2ccccc2)c(=O)[nH]1
T/C [15]: 97 % of control
T/C [7]: 101 % of control
T/C [8]: 101 % of control
T/C [18]: 101 % of control

COc1nc(OC)c(OP(=O)(OC)OC)c(OC)n1
T/C [15]: 95 % of control
T/C [7]: 98 % of control
T/C [8]: 89 % of control
T/C [18]: 95 % of control

Nc1cc2ccc3ccccc3c2c2ccccc12
T/C (dose: 100.0 mg/kg/injection, schedule: Q01DX001 (ip), vehicle: Klucel (hydroxypropylcellulose) (HPC)): 110 % of control
T/C (dose: 130.0 mg/kg/injection, schedule: Q01DX001 (ip), vehicle: Klucel (hydroxypropylcellulose) (HPC)): 94 % of control

NCC(=O)NC(Cc1c[nH]c2ccccc12)C(=O)O (configuration not stated)
T/C (dose: 100.0 mg/kg/injection, schedule: Q01DX001 (ip), vehicle: acetone): 97 % of control
T/C (dose: 200.0 mg/kg/injection, schedule: Q01DX001 (ip), vehicle: acetone): 98 % of control
T/C (dose: 400.0 mg/kg/injection, schedule: Q01DX001 (ip), vehicle: acetone): 92 % of control

C=CCN(CC=C)S(=O)(=O)c1cccc(C(=O)O)c1
T/C [16]: 103 % of control
T/C [17]: 92 % of control
T/C [19]: 105 % of control

O=C(CCl)Nc1cccc2c1C(=O)c1c(c(O)c3ccccc3c1O)C2=O
T/C [9]: 94 % of control
T/C [10]: 92 % of control
T/C [11]: 90 % of control

CC(=O)/C=C(\C)NCC(C)N/C(C)=C/C(C)=O (configuration not stated)
T/C [7]: 105 % of control
T/C [8]: 96 % of control
T/C [18]: 99 % of control

CCC(C)(C)C(=O)Nc1cccc(OC(=O)NC)c1
T/C [5]: 93 % of control

CCn1[nH]cc2c3nnc(-c4ccccc4)c3cnc21
T/C [12]: 98 % of control
T/C [13]: 92 % of control
T/C [14]: 95 % of control

CCOC(=O)c1cnc(SC)nc1NC
T/C [16]: 97 % of control
T/C [17]: 99 % of control
T/C [19]: 111 % of control

CC(C)[N+](=O)[O-]
T/C (dose: 62.5 mg/kg/injection, schedule: Q01DX001 (ip), vehicle: Klucel (hydroxypropylcellulose) (HPC)): 104 % of control
T/C (dose: 125.0 mg/kg/injection, schedule: Q01DX001 (ip), vehicle: Klucel (hydroxypropylcellulose) (HPC)): 114 % of control
T/C (dose: 250.0 mg/kg/injection, schedule: Q01DX001 (ip), vehicle: Klucel (hydroxypropylcellulose) (HPC)): 101 % of control

O=[N+]([O-])c1ccc(OCc2ccccc2)cc1
T/C [9]: 96 % of control
T/C [10]: 92 % of control
T/C [11]: 94 % of control

CN(C)C(=O)c1cc(NC(=O)c2ccc(C(=O)Nc3cc(C(=O)N(C)C)cc(C4=NCCN4)c3)cc2)cc(C2=NCCN2)c1
T/C (dose: 7.5 mg/kg/injection, schedule: Q01DX015 (ip), vehicle: methylcellulose (MC)): 98 % of control
T/C (dose: 15.0 mg/kg/injection, schedule: Q01DX015 (ip), vehicle: methylcellulose (MC)): 98 % of control and 108 % of control
T/C (dose: 60.0 mg/kg/injection, schedule: Q01DX015 (ip), vehicle: methylcellulose (MC)): 98 % of control

CC1(C)CCOc2ccccc21
T/C (dose: 50.0 mg/kg/injection, schedule: Q01DX009 (ip), vehicle: saline with Tween-80): 88 % of control
T/C [1]: 94 % of control

O=C(O)CCCOc1ccc(Cl)cc1Cl
T/C [1]: 103 % of control
T/C [3]: 98 % of control
T/C [5]: 103 % of control

CCCCOC(=O)CC1CCCN1C (configuration not stated)
T/C [2]: 110 % of control
T/C [4]: 101 % of control

CCCCOC(=S)Nc1ccc(S(=O)(=O)c2ccc(NC(=S)OCCCC)cc2)cc1
T/C [7]: 108 % of control
T/C [8]: 102 % of control
T/C [18]: 104 % of control

CCCCC(=O)N/N=C\c1cccc(OCc2ccccc2)c1
T/C [7]: 107 % of control
T/C [8]: 102 % of control
T/C [18]: 109 % of control

ClCCOCCOc1ccccc1OCCOCCCl
T/C (dose: 50.0 mg/kg/injection, schedule: Q04DX002 (ip), vehicle: saline with Tween-80): 100 % of control
T/C (dose: 100.0 mg/kg/injection, schedule: Q04DX002 (ip), vehicle: saline with Tween-80): 90 % of control

C1CCC(C2CCC(N3CCCCC3)CC2)CC1 (configuration not stated)
T/C (dose: 12.5 mg/kg/injection, schedule: Q01DX001 (ip), vehicle: saline): 106 % of control
T/C (dose: 25.0 mg/kg/injection, schedule: Q01DX001 (ip), vehicle: saline): 101 % of control
T/C [15]: 101 % of control
